Like-named read-outs stand apart in the source and are kept apart here.
Legend:
[1] = tested on: Antiserum to somatostatin-14; experiment: Somatostatin radioimmunoassay, specificity (displacement of 125I-Tyr11 somatostatin-14); type: binding; conditions: 20 h at 4 C, charcoal/dextran separation; for sensitivity of the RIA to the substance (displacement of label): triplicate
[2] = tested on: ZR-75-1 cells; experiment: Cell proliferation assay (electronic cell counting), ZR-75-1; type: cell-based, human
Description: Somatostatin is a neuroendocrine hormone which inhibits not only exocrine and endocrine secretion, but also mito- genesis. Somatostatin-synthesising cells have a widespread anatomical distribution, being found in regions of the central nervous system and gastrointestinal tract. […] There have been few studies of the presence of SLI in breast cancer specimens. […] Inhibition of tumour growth may be indirect, through inhibition of endocrine secretion. […] Correspondence: J. Nelson. Received 5 October 1988, and in revised form, 9 January 1989. Materials and methods Tissue culture All media and fetal calf serum (FCS) were obtained from Flow Laboratories, Rickmansworth, UK. The same batch of serum was used throughout. MCF-7 cells, a gift from Dr C.R. Green, Liverpool University, were routinely cultured in modified Eagle's mini- mal essential medium (MEM) supplemented with non- essential amino acids, sodium pyruvate (1 mM) and 5% v/v FCS. ZR-75-1 and MDA-MB-436 cells were obtained from the American Tissue Culture Collection. ZR-75-1 cells were cultured in RPMI 1640 medium containing 5% FCS. MDA- MB-436 cells were cultured in Liebowitz 15 medium contain- ing 10% FCS. All media contained Phenol Red and were supplemented with penicillin (1OOIUml-1) and streptomycin (100 ug ml- 1). Cell proliferation assays To assess the effects of somatostatin and Sandostatin, 5 x 10^4 cells were inoculated in 24-well tissue culture plates (Costar, Northumbria Biologicals Ltd, Cramlington, UK)- .After one day, plating efficiency was determined in a repre- sentative set of wells (cell counts, day 0) by trypsinisation and electronic cell counting (Coulter counter model ZBI, Coulter Electronics, Luton, UK). At this time medium was removed from remaining wells and replaced with fresh medium (control) or medium containing peptide (treatment) as indicated. Control and treatment media were either unchanged or changed daily during the course of the experi- ments, or control and treatment media were removed after one day exposure (i.e. from day 0 to day 1) and replaced by control medium. Thereafter cells were removed and counted at the times indicated.

[3] = tested on: MCF-7 cells; experiment: Cell proliferation assay (electronic cell counting), MCF-7; type: cell-based, human; conditions: 500 ng ml-1, 6 days continuous exposure without medium changes, MEM plus 5% FCS (Figure 4); mean of 3-5 wells
Description: (§1) Somatostatin is a neuroendocrine hormone which inhibits not only exocrine and endocrine secretion, but also mito- genesis. Somatostatin-synthesising cells have a widespread anatomical distribution, being found in regions of the central nervous system and gastrointestinal tract. […] There have been few studies of the presence of SLI in breast cancer specimens. […] Inhibition of tumour growth may be indirect, through inhibition of endocrine secretion. […] Correspondence: J. Nelson. Received 5 October 1988, and in revised form, 9 January 1989. Materials and methods Tissue culture All media and fetal calf serum (FCS) were obtained from Flow Laboratories, Rickmansworth, UK. The same batch of serum was used throughout. […] Cell proliferation assays To assess the effects of somatostatin and Sandostatin, 5 x 10^4 cells were inoculated in 24-well tissue culture plates (Costar, Northumbria Biologicals Ltd, Cramlington, UK)- .After one day, plating efficiency was determined in a repre- sentative set of wells (cell counts, day 0) by trypsinisation and electronic cell counting (Coulter counter model ZBI, Coulter Electronics, Luton, UK). […] Thereafter cells were removed and counted at the times indicated.

[4] = tested on: MDA-MB-436 cells
Description: as §1

[5] = rat kidney homogenates, ref Pless et al., 1986, cited from earlier work
Description: In the presence of fe ...

[6] = read-out RIA

Molecule: EGF
- sensitivity of the RIA to the substance (displacement of label) ([1]; 1,000 fmol per tube): insensitive

Molecule: bacitracin
- sensitivity of the RIA to the substance (displacement of label) ([1]; 1,000 fmol per tube): insensitive

Molecule: Sandostatin
- effect of one day exposure followed by return to control medium on cell proliferation ([2]; 500 ng ml-1, 5% FCS, exposure day 0 to day 1, then control medium (Figures 1c, 2b)): much less effective in inhibiting cell proliferation than a continuous exposure
- inhibition of ZR-75-1 cell proliferation compared with relevant control populations ([2]; continuous exposure to single or repeated doses of 500 ng ml-1, in the presence of FCS, day 6 (Figures 1a, b and 2a)): > 3 fold
- influence of insulin on the inhibitory effect ([2]; in the presence of insulin, 5% FCS (results not shown)): not more pronounced in the presence of insulin
- concentration giving consistent inhibition of growth ([2]; range 10-500 ng ml-1 tested, without medium changes): 500 ng/mL
- lowest concentration at which inhibition was occasionally observed ([2]; range 10-500 ng ml-1 tested, without medium changes, inhibition at low concentrations variable): 25 ng ml -1
- effect of continuous exposure on growth (final cell numbers) [3]: inhibition of growth
- effect of continuous exposure on growth (final cell numbers) ([4]; 500 ng ml-1, 6 days continuous exposure without medium changes, L-15 plus 10% FCS (Figure 4), mean of 3-5 wells): inhibition of growth
- degradation by homogenate ([5]; up to 20h): virtually unaffected
- sensitivity of the RIA to the substance (displacement of label) ([1]; 500 fmol per tube): insensitive

Molecule: C[C@H](N)C(=O)NCC(=O)N[C@H]1CSSC[C@@H](C(=O)O)NC(=O)[C@H](CO)NC(=O)[C@H]([C@@H](C)O)NC(=O)[C@H](Cc2ccccc2)NC(=O)[C@H]([C@@H](C)O)NC(=O)[C@H](CCCCN)NC(=O)[C@H](Cc2c[nH]c3ccccc23)NC(=O)[C@H](Cc2ccccc2)NC(=O)[C@H](Cc2ccccc2)NC(=O)[C@H](CC(N)=O)NC(=O)[C@H](CCCCN)NC1=O [somatostatin]
- exogenous somatostatin remaining, as measured by RIA ([6]; after two days in 5% FCS with or without cells): undetectable
- exogenous somatostatin remaining, as measured by RIA ([6]; in the presence of 5% FCS alone (no cells), after one day incubation): < 50%
- exogenous somatostatin remaining, as measured by RIA ([6]; in the presence of cells and 5% FCS, RPMI 1640, ZR-75-1 cells, 500 ng ml-1, after one day incubation): < 20%
- cytotoxic effects in serum-free conditions ([4]; serum-free conditions (results not shown)): no cytotoxic effects
- remaining of starting levels after degradation ([5]; within 1 h): < 25%

Molecule: somatostatin-28
- displacement of label in the RIA ([1]; compared with somatostatin-14): displacement of label was found with somatostatin-28 at higher molarities

Molecule: leupeptin
- sensitivity of the RIA to the substance (displacement of label) ([1]; 2,000 fmol per tube): insensitive

B1: prolactin (protein, UniProt P01236 29-227, looked up)
Prolactin: LPICPGGAARCQVTLRDLFDRAVVLSHYIHNLSSEMFSEFDKRYTHGRGFITKAINSCHTSSLATPEDKEQAQQMNQKDFLSLIVSILRSWNEPLYHLVTEVRGMQEAPEAILSKAVEIEEQTKRLLEGMELIVSQVHPETKENEIYPVWSGLPSLQMADEESRLSAYYNLLHCLRRDSHKIDNYLKLLKCRIIHNNNC
notes: substance tested for cross-reaction in the somatostatin RIA
- sensitivity of the RIA to the substance (displacement of label) ([1]; 2,000 fmol per tube): insensitive

— PMC2247230, “Synthesis of somatostatin by breast cancer cells and their inhibition by exogenous somatostatin and sandostatin” (British Journal of Cancer, 1989)
